In general, IC50 refers to the concentration that gives 50% inhibition. A high value points to weaker potency. A word on the inhibition: it is the share of the control response that was lost under treatment. A word on the Papp: it is a coefficient for how fast a substance crosses the barrier.

Where a SMILES comes first, the peptide text is derived from it. The star is where a group is joined. Isobutyryl = CC(C)C(=O)*; Cbz = O=C(OCc1ccccc1)*; OAll = C=CCO* Some results are limits rather than exact numbers.

We go through 18 compounds from publication PMC10955571 (ACS Omega, 2024).

One series addresses BACE-1 (Homo sapiens, UniProt P56817). The experiment in a line: BACE-1 FRET inhibition assay. It counts as biochemical.
The target of another series is Human AChE (Homo sapiens, UniProt P22303). The experiment in a line: AChE inhibition, Ellman assay. The class given is biochemical. (In general: Ellman's reagent forms a yellow product with free thiols.)
Human AChE, sequence (P22303 32-614): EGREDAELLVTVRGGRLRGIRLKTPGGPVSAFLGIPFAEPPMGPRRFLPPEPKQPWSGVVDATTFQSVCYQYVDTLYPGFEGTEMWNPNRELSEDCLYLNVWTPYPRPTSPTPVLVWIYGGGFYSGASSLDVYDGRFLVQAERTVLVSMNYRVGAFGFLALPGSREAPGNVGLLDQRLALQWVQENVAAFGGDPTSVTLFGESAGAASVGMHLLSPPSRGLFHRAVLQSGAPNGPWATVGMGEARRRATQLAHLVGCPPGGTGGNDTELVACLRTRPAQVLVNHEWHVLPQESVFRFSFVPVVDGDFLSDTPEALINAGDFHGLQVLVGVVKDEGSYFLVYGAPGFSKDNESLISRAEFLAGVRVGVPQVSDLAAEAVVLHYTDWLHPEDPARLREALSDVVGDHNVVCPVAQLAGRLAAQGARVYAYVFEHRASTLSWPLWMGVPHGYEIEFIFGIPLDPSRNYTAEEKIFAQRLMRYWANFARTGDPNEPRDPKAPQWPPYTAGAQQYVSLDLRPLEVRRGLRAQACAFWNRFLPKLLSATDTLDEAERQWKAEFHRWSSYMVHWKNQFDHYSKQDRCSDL
Another series addresses Aβ1–42 (Homo sapiens, UniProt P05067). The experiment in a line: Inhibition of Aβ1–42 self-induced aggregation, Thioflavin-T fluorometric assay. The class given is biochemical. The note with it: read-out: % inhibition of Aβ1–42 aggregation at 10 μM, 10 μM compound.
Series [1] deals with scopolamine-induced memory impairment in mice. The experiment in a line: Morris water maze test, scopolamine-induced memory impairment. Conditions: MWM, one animal from each group; for time taken by the animals to reach the platform, after the training (5th day): basal reading before any treatment; for time taken by the animals to reach the platform, after treatment with the test compound/donepezil (11th day): before scopolamine; for time taken by the animals to reach the platform, after treatment with the test compound/donepezil (11th day) / time taken by the animals to reach the platform, after treatment with scopolamine (14th day): compounds 10 mg/kg, donepezil 3 mg/kg; for time taken by the animals to reach the platform, after treatment with scopolamine (14th day): scopolamine 2 mg/kg i.p. days 12-14. The class given is in vivo, Swiss albino mice.

Another series can be described thus: PAMPA-BBB permeability. The note with it: for Papp at 5 h, 200 μM: PAMPA, pH 7.4. (In general: In PAMPA a lipid-coated filter parts donor from acceptor wells.)
A further series can be described thus: Plasma stability assay. It counts as in vitro ADME.

BACE-1, sequence (P56817 46-501): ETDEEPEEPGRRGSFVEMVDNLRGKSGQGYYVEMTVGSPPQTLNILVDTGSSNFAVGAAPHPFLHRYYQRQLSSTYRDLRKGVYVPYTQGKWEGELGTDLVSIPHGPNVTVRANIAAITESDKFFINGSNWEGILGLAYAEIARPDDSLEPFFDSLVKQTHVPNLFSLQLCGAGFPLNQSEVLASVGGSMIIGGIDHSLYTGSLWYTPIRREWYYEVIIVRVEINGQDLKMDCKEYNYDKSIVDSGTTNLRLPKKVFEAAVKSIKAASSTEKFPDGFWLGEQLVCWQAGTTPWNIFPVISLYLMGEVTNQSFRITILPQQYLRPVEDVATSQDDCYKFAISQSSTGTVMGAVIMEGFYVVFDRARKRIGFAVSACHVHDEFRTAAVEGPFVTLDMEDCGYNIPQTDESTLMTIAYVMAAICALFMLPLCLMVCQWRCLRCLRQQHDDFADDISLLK
Aβ1–42, sequence (P05067 672-713): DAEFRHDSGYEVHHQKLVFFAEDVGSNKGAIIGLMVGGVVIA

`COC(=O)[C@H](C)NC(=O)[C@@H]1CCCN1C(=O)CNC(=O)C(C)C` [Compound 13, Isobut-Gly-Pro-Ala-OMe] (Isobutyryl-Gly-Pro-Ala-OMe): the IC50 against BACE-1 was found to be 0.2 ± 0.03 µM; against Human AChE, 7 ± 1 µM. In addition, the inhibition at 10 µM at Aβ1–42 worked out at 36.3 ± 4.3%.
Consider `CC(C)C(=O)NCC(=O)N1CCC[C@H]1C(=O)N[C@@H](C)C(=O)O` [Compound 14, Isobut-Gly-Pro-Ala-OH] (Isobutyryl-Gly-Pro-Ala-OH), for which the IC50 against BACE-1 amounted to 0.6 ± 0.05 µM; against Human AChE, 8 ± 1.2 µM.
For `C=CCOC(=O)[C@H](C)NC(=O)[C@@H]1CCCN1C(=O)CNC(=O)C(C)C` [Compound 15, Isobut-Gly-Pro-Ala-O-allyl] (Isobutyryl-Gly-Pro-Ala-OAll), the IC50 against BACE-1 turned out to be 0.05 ± 0.001 µM. Besides, in series [1], the “time taken by the animals to reach the platform, after the training (5th day)” value (shortened to “time taken by the animals … (5th day)”) was 11 s; the “time taken by the animals to reach the platform, after treatment with the test compound/donepezil (11th day)” value was 11 s; the “time taken by the animals to reach the platform, after treatment with scopolamine (14th day)” value (“time taken by the animals … (14th day)” below) amounted to 93 s. For the same compound, at Human AChE, 0.05 ± 0.01 µM corresponded to half-maximal inhibition (IC50). Also, the Papp at 5 h, 200 μM in “PAMPA-BBB permeability” was determined as 1.8 ×10⁻⁶ cm/s. Besides, on Aβ1–42, the inhibition at 10 µM was more than 50%.
On to `CC(C)=CCOC(=O)[C@H](C)NC(=O)[C@@H]1CCCN1C(=O)CNC(=O)C(C)C` [Compound 16, Isobut-Gly-Pro-Ala-O-dimethylallyl], for which the figures for the IC50 on BACE-1 and at Human AChE were 0.2 ± 0.01 µM and 1 ± 0.1 µM, respectively.
With `CC(C)C(=O)NCC(=O)N1CCC[C@H]1C(=O)N[C@@H](C)C(=O)OC/C=C/c1ccccc1` [Compound 17, Isobut-Gly-Pro-Ala-O-Cinnamyl], the IC50 was 0.1 ± 0.01 µM against BACE-1 and 0.9 ± 0.1 µM against Human AChE. This compound displayed a Papp at 5 h, 200 μM in the series “PAMPA-BBB permeability” of 3.64 ×10⁻⁶ cm/s.
In turn, `CC(C)=CCC/C(C)=C/COC(=O)[C@H](C)NC(=O)[C@@H]1CCCN1C(=O)CNC(=O)C(C)C` [Compound 18, Isobut-Gly-Pro-Ala-O-Geranyl] gave an IC50 on BACE-1 of 20 ± 2 µM. Further, in series [1], the “time taken by the animals … (5th day)” value came out at 5 s; the “time taken by the animals to reach the platform, after treatment with the test compound/donepezil (11th day)” value was 5 s; the “time taken by the animals … (14th day)” value is 71 s. This compound returned an IC50 at Human AChE of 7 ± 1.3 µM. In “PAMPA-BBB permeability”, the Papp at 5 h, 200 μM amounted to 3.17 ×10⁻⁶ cm/s. The inhibition at 10 µM on Aβ1–42 came out at 12.5 ± 2.1%.
In the case of `COC(=O)[C@H](C)NC(=O)[C@@H]1CCCN1C(=O)CNC(=O)OCc1ccccc1` [Compound 21, Cbz-Gly-Pro-Ala-OMe] (Cbz-Gly-Pro-Ala-OMe), the results for the IC50 against BACE-1 and at Human AChE were 30 ± 4.1 µM and 1000 ± 9.5 µM, respectively. The “IC50 AChE” value on Human AChE (Ellman assay, mean ± SEM) is reported as “millimolar range”.
For the compound `C[C@H](NC(=O)[C@@H]1CCCN1C(=O)CNC(=O)OCc1ccccc1)C(=O)O` [Compound 22, Cbz-Gly-Pro-Ala-OH] (Cbz-Gly-Pro-Ala-OH), the values for the IC50 on BACE-1 and at Human AChE were 0.3 ± 0.02 µM and 0.1 ± 0.01 µM, respectively.
Consider `C=CCOC(=O)[C@H](C)NC(=O)[C@@H]1CCCN1C(=O)CNC(=O)OCc1ccccc1` [Compound 23, Cbz-Gly-Pro-Ala-O-Allyl] (Cbz-Gly-Pro-Ala-OAll), for which the half-inhibitory concentration (IC50) at BACE-1 turned out to be 1 ± 0.2 µM; against Human AChE, 0.8 ± 0.1 µM.
For `CC(C)=CCOC(=O)[C@H](C)NC(=O)[C@@H]1CCCN1C(=O)CNC(=O)OCc1ccccc1` [Compound 24, Cbz-Gly-Pro-Ala-O-dimethylallyl], the IC50 on BACE-1 was determined as 20 ± 2.3 µM; on Human AChE, 0.6 ± 0.03 µM.
`C[C@H](NC(=O)[C@@H]1CCCN1C(=O)CNC(=O)OCc1ccccc1)C(=O)OC/C=C/c1ccccc1` [Compound 25, Cbz-Gly-Pro-Ala-O-cinnamyl] showed an IC50 against BACE-1 of 0.02 ± 0.001 µM. Further, the “change in the concentration in plasma” value in “Plasma stability assay” (50 μM in plasma pH 7–8, 37 °C, 12 h incubation) is reported as approximately 10%. In the series “Plasma stability assay” (50 μM in plasma, 37 °C), the “effect of plasma on the half-life time” value is “no remarkable effect on the half-life time”. In series [1], the “time taken by the animals … (5th day)” value worked out at 20 s; the “time taken by the animals to reach the platform, after treatment with the test compound/donepezil (11th day)” value is listed as 15 s; the “time taken by the animals … (14th day)” value came out at 15 s. The compound also showed a half-maximal inhibitory concentration (IC50) against Human AChE of 1 ± 0.2 µM. This compound showed a Papp at 5 h, 200 μM in the series “PAMPA-BBB permeability” of 17.8 ×10⁻⁶ cm/s. The inhibition at 10 µM on Aβ1–42 was more than 50%.
As for `CC(C)=CCC/C(C)=C/COC(=O)[C@H](C)NC(=O)[C@@H]1CCCN1C(=O)CNC(=O)OCc1ccccc1` [Compound 26, Cbz-Gly-Pro-Ala-O-Geranyl], on BACE-1, it took 0.1 ± 0.01 µM to reach half-maximal inhibition (IC50). Also, in series [1], the “time taken by the animals … (5th day)” value is recorded as 7 s; the “time taken by the animals to reach the platform, after treatment with the test compound/donepezil (11th day)” value is 39 s; the “time taken by the animals … (14th day)” value came out at 45 s. Also, inhibition against Human AChE was half-maximal at 0.7 ± 0.1 µM (IC50). In addition, the inhibition at 10 µM on Aβ1–42 worked out at 31.8 ± 3.2%.
For the compound `COC(=O)[C@H](C)NC(=O)[C@@H]1CCCN1C(=O)CN` [Compound 30, NH2-Gly-Pro-Ala-OMe] (H-Gly-Pro-Ala-OMe), half-maximal inhibition at BACE-1 (IC50) was put at 0.02 ± 0.001 µM. In addition, in series [1], the “time taken by the animals … (5th day)” value turned out to be 20 s; the “time taken by the animals to reach the platform, after treatment with the test compound/donepezil (11th day)” value stood at 12 s; the “time taken by the animals … (14th day)” value is 65 s. This compound also showed an IC50 on Human AChE of 2 ± 1.1 µM. For the same compound, the Papp at 5 h, 200 μM in “PAMPA-BBB permeability” was 8.98 ×10⁻⁶ cm/s. Moreover, on Aβ1–42, the inhibition at 10 µM stood at 33.7 ± 4.2%.
On to `C(=C\n1nncc1COc1ccc2ccccc2c1-c1c(OCc2cnnn2/C=C/Cc2ccccc2)ccc2ccccc12)/Cc1ccccc1` [Compound 33, 2,2′-Bis((1-((E)-3-phenylprop-1-en-1-yl)-1H-1,2,3-triazol-5-yl)methoxy)-1,1′-binaphthalene], for which the IC50 was 1 ± 0.1 µM at BACE-1 and 7 ± 1.4 µM on Human AChE. The compound also displayed a Papp at 5 h, 200 μM in “PAMPA-BBB permeability” of 1.59 ×10⁻⁶ cm/s. On Aβ1–42, the inhibition at 10 µM came out at 43.2 ± 4.7%.
Regarding `Cn1c(=O)c2c(ncn2C)n(C)c1=O` [caffeine, reference compound], the “Pe (PAMPA-BBB)” value in “PAMPA-BBB permeability” (200 μM in PBS pH 7.4, 5 h, room temperature) is listed as 10.9 × 10^–6 cm s^–1. The compound also returned a Papp at 5 h, 200 μM in “PAMPA-BBB permeability” of 10.9 ×10⁻⁶ cm/s.
As to `COc1cc2c(cc1OC)C(=O)C(CC1CCN(Cc3ccccc3)CC1)C2` (stereo not shown) [donepezil, reference compound], in series [1], the “time taken by the animals … (5th day)” value was 15 s; the “time taken by the animals to reach the platform, after treatment with the test compound/donepezil (11th day)” value came to 17 s; the “time taken by the animals … (14th day)” value was determined as 10 s. The inhibition at 10 µM at Aβ1–42 came to 10.9 ± 1.4%.
For the compound `CCn1cc(C(=O)O)c(=O)c2cc(F)c(N3CCNCC3)cc21` [norfloxacin, reference compound], the Papp at 5 h, 200 μM in the series “PAMPA-BBB permeability” turned out to be 1.73 ×10⁻⁶ cm/s.
With `CN1[C@@H]2C[C@@H](OC(=O)[C@H](CO)c3ccccc3)C[C@H]1[C@@H]1O[C@@H]12` [scopolamine, reference compound], the “time taken by the animals … (14th day)” value in series [1] is 77 s.
